Assay results: patent US9758492B2, “IDO inhibitors” (Bristol-Myers Squibb Company, priority 2013, dated 2017)
pIC50: −log10 of the molar value.

Assays:
[1] = biological target: T1, Human IDO1 (Homo sapiens, UniProt P14902); assay: IDO Kynurenine Assay with Human IDO1/HEK293 Cells; assay type: cell-based; conditions: read-out: HEK human IDO-1 (IC50)
T1 construct: expressed in transfected cells; host or cells: HEK293
Summary of the method: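 HEK293 cells stably expressing human IDO1, in phenol red-free RPMI/10% FBS, exposed to compound for 20 h at 37 °C. Stopped with 0.2% TCA (50 °C, 30 min); kynurenine in supernatant detected with Ehrlich reagent, absorbance 490 nm.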

[2] = biological target: IDO (Homo sapiens, UniProt P14902); assay: LLE_IDO_ABS_DR (IDO assay)
IDO, sequence (P14902 whole entry): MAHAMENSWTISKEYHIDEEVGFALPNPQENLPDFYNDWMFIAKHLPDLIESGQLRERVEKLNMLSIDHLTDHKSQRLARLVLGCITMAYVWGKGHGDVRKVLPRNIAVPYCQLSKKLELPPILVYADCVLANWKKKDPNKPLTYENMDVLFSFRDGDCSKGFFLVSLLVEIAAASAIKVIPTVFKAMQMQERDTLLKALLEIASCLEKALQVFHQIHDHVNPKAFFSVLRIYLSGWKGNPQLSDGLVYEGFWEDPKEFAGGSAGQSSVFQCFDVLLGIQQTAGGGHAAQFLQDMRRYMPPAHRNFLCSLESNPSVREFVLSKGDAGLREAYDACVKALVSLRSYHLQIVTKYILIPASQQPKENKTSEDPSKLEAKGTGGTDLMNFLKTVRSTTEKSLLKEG

T1 sequence (P14902 whole entry): as above

Row | SMILES | pIC50 [1] | pIC50 [2]
1 | Cc1ccc(NC(=O)Nc2cc(-c3ccccc3-c3nnn[nH]3)ccc2N2CCC(c3ccccc3)C2)cc1 (racemic) [Example 367, (±)-1-(4-(3-Phenylpyrrolidin-1-yl)-2′-(1H-tetrazol-5-yl)-[1,1′-biphenyl]-3-yl)-3-(p-tolyl)urea] | 8.00 | 7.70
2 | Cc1ccc(NC(=O)Nc2cc(-c3ccccc3-c3nnn[nH]3)ccc2N(CCC(F)(F)F)Cc2cccc(Cl)c2)cc1 [Example 13, 1-(4-((3-Chlorobenzyl)(3,3,3-trifluoropropyl)amino)-2′-(1H-tetrazol-5-yl)-[1,1′-biphenyl]-3-yl)-3-(p-tolyl)urea] | 7.22 | 7.52
3 | Cc1ccc(NC(=O)Nc2cc(-c3ccccc3-c3nnn[nH]3)ccc2N(CCC(F)(F)F)Cc2ccc(Cl)cc2)cc1 [Example 16] | 7.70 | 8.00
4 | Cc1ccc(NC(=O)Nc2cc(-c3ccccc3-c3nnn[nH]3)ccc2N(CCC(F)(F)F)Cc2ccccc2Cl)cc1 [Example 19, 1-(4-((2-Chlorobenzyl)(3,3,3-trifluoropropyl)amino)-2′-(1H-tetrazol-5-yl)-[1,1′-biphenyl]-3-yl)-3-(p-tolyl)urea] | 7.40 | 7.70
5 | CC(C)CN(CC(C)C)c1ccc(-c2ccccc2-c2nnn[nH]2)cc1NC(=O)Nc1ccc(Br)cc1F [Example 38, 1-(4-Bromo-2-fluorophenyl)-3-(4-(diisobutylamino)-2′-(1H-tetrazol-5-yl)biphenyl-3-yl)urea] | 8.75 | 8.74
6 | Cc1cc(NC(=O)Nc2cc(-c3cc(F)ccc3C(=O)O)c(F)cc2N(CC(C)C)C2CCC(F)(F)CC2)on1 [Example 521, 4′-((4,4-Difluorocyclohexyl)(isobutyl)amino)-2′,5-difluoro-5′-(3-(3-methylisoxazol-5-yl)ureido)-[1,1′-biphenyl]-2-carboxylic acid] | 8.07 | –
7 | CC(C)CN(c1cc(F)c(-c2cc(F)ccc2C(=O)O)cc1NC(=O)Nc1ccc(C2CCCCC2)cc1)C1CCCCC1 [Example 523, 4′-(Cyclohexyl(isobutyl)amino)-5′-(3-(4-cyclohexylphenyl)ureido)-2′,5-difluoro-[1,1′-biphenyl]-2-carboxylic acid] | 5.26 | –
8 | CC(C)CN(c1cc(F)c(-c2cc(F)ccc2C(=O)O)cc1NC(=O)Nc1ccc(N2CCOCC2)cc1)C1CCCCC1 [Example 524, 4′-(Cyclohexyl(isobutyl)amino)-2′,5-difluoro-5′-(3-(4-morpholinophenyl)ureido)-[1,1′-biphenyl]-2-carboxylic acid] | 5.57 | –
9 | Cc1cnc(NC(=O)Nc2cc(-c3cc(F)ccc3C(=O)O)c(F)cc2N(CC(C)C)C2CCCCC2)cn1 [Example 525, 4′-(Cyclohexyl(isobutyl)amino)-2′,5-difluoro-5′-(3-(5-methylpyrazin-2-yl)ureido)-[1,1′-biphenyl]-2-carboxylic acid] | 7.05 | –
10 | Cc1ccc(C(=O)O)c(-c2ccc(N(CC(C)C)CC(C)C)c(NC(=O)Nc3ccccc3F)c2)c1 [Example 526, 4′-(Diisobutylamino)-3′-(3-(2-fluorophenyl)ureido)-5-methyl-[1,1′-biphenyl]-2-carboxylic acid] | 6.62 | –
11 | Cc1ccc(C(=O)O)c(-c2ccc(N(CC(C)C)CC(C)C)c(NC(=O)Nc3ccc(F)cc3F)c2)c1 [Example 528, 3′-(3-(2,4-Difluorophenyl)ureido)-4′-(diisobutylamino)-5-methyl-[1,1′-biphenyl]-2-carboxylic acid] | 6.80 | –
12 | Cc1ccc(NC(=O)Nc2cc(-c3cc(C)ccc3C(=O)O)ccc2N(CC(C)C)CC(C)C)cc1 [Example 530, 4′-(Diisobutylamino)-5-methyl-3′-(3-(p-tolyl)ureido)-[1,1′-biphenyl]-2-carboxylic acid] | 6.52 | –
13 | CC(C)CN(c1cc(F)c(-c2ccccc2-c2nnn[nH]2)cc1NC(=O)Nc1ccc2c(c1)OCO2)C1CCC(F)(F)CC1 [Example 532, 1-(Benzo[d][1,3]dioxol-5-yl)-3-(4-((4,4-difluorocyclohexyl)(isobutyl)amino)-6-fluoro-2′-(1H-tetrazol-5-yl)-[1,1′-biphenyl]-3-yl)urea] | 8.32 | –
14 | Cc1ccc(NC(=O)Nc2cc(-c3ccccc3C(=O)O)c(F)cc2N(CC(C)C)C2CCC(F)(F)CC2)cc1 [Example 533, 4′-((4,4-Difluorocyclohexyl)(isobutyl)amino)-2′-fluoro-5′-(3-(p-tolyl)ureido)-[1,1′-biphenyl]-2-carboxylic acid] | 8.10 | –
15 | Cc1ccc(NC(=O)Nc2cc(-c3ccccc3-c3nnn[nH]3)c(F)cc2N(CC(C)C)C2CCC(F)(F)CC2)cc1 [Example 534, 1-(4-((4,4-Difluorocyclohexyl)(isobutyl)amino)-6-fluoro-2′-(1H-tetrazol-5-yl)-[1,1′-biphenyl]-3-yl)-3-(p-tolyl)urea] | 8.52 | –
16 | Cc1cc(NC(=O)Nc2cc(-c3cccc(C)c3C(=O)O)ccc2N(CC(C)C)CC(C)C)on1 [Example 535, 4′-(Diisobutylamino)-3-methyl-3′-(3-(3-methylisoxazol-5-yl)ureido)-[1,1′-biphenyl]-2-carboxylic acid] | 6.85 | –
17 | Cc1ccc(NC(=O)Nc2cc(-c3cccc(C)c3C(=O)O)ccc2N(CC(C)C)CC(C)C)cc1 [Example 536, 4′-(Diisobutylamino)-3-methyl-3′-(3-(p-tolyl)ureido)-[1,1′-biphenyl]-2-carboxylic acid] | 7.15 | –
18 | CC(C)CN(c1cc(F)c(-c2ccccc2-c2nnn[nH]2)cc1NC(=O)Nc1ccccc1F)C1CCC(F)(F)CC1 [Example 537, 1-(4-((4,4-Difluorocyclohexyl)(isobutyl)amino)-6-fluoro-2′-(1H-tetrazol-5-yl)-[1,1′-biphenyl]-3-yl)-3-(2-fluorophenyl)urea] | 8.22 | –
19 | CCOc1ccc(NC(=O)Nc2cc(-c3ccccc3-c3nnn[nH]3)c(F)cc2N(CC(C)C)C2CCC(F)(F)CC2)cc1 [Example 539, 1-(4-((4,4-Difluorocyclohexyl)(isobutyl)amino)-6-fluoro-2′-(1H-tetrazol-5-yl)-[1,1′-biphenyl]-3-yl)-3-(4-ethoxyphenyl)urea] | 8.48 | –
20 | CCOc1ccc(NC(=O)Nc2cc(-c3cc(F)ccc3C(=O)O)c(F)cc2N(CC(C)C)C2CCC(F)(F)CC2)cc1 [Example 540] | 8.00 | –
21 | Cc1ccc(NC(=O)Nc2cc(-c3ccccc3-c3nnn[nH]3)ccc2N(C2CC2)C2CC2)cc1 [Example 542] | 6.12 | –
22 | CCOc1ccc(NC(=O)Nc2cc(-c3cc(F)ccc3C(=O)O)ccc2N(C2CC2)C2CC2)cc1 [Example 543] | 5.14 | –
23 | CCOc1ccc(NC(=O)Nc2cc(-c3ccccc3-c3nnn[nH]3)ccc2N(C2CC2)C2CC2)cc1 [Example 544] | 5.76 | –

Further compounds by rising pIC50 [1], results first:

Row | pIC50 [1] | pIC50 [2] | SMILES
24 | 5.31 | – | CC(C)CN(c1cc(F)c(-c2cc(F)ccc2C(=O)O)cc1NC(=O)Nc1cnn(CC(F)(F)F)c1)C1CCC(F)(F)CC1 [Example 520, 4′-((4,4-Difluorocyclohexyl)(isobutyl)amino)-2′,5-difluoro-5′-(3-(1-(2,2,2-trifluoroethyl)-1H-pyrazol-4-yl)ureido)-[1,1′-biphenyl]-2-carboxylic acid]
25 | 5.46 | – | Cc1ccc(NC(=O)Nc2cc(-c3cc(F)ccc3C(=O)O)ccc2N(C2CC2)C2CC2)cc1 [Example 541, 4′-(Dicyclopropylamino)-5-fluoro-3′-(3-(p-tolyl)ureido)-[1,1′-biphenyl]-2-carboxylic acid]
26 | 5.91 | – | Cc1ccc(NC(=O)Nc2cc(-c3cc(F)ccc3C(=O)O)c(F)cc2N(CC(C)C)C2CCCCC2)nn1 [Example 522, 4′-(Cyclohexyl(isobutyl)amino)-2′,5-difluoro-5′-(3-(6-methylpyridazin-3-yl)ureido)-[1,1′-biphenyl]-2-carboxylic acid]
27 | 6.41 | – | CCOc1ccc(NC(=O)Nc2cc(-c3cc(C)ccc3C(=O)O)ccc2N(CC(C)C)CC(C)C)cc1 [Example 529, 4′-(Diisobutylamino)-3′-(3-(4-ethoxyphenyl)ureido)-5-methyl-[1,1′-biphenyl]-2-carboxylic acid]
28 | 7.00 | 7.10 | Cc1ccc(NC(=O)Nc2cc(-c3ccccc3C(=O)O)ccc2N(CCC(F)(F)F)Cc2ccc(Cl)cc2)cc1 [Example 14, 4′-((4-Chlorobenzyl)(3,3,3-trifluoropropyl)amino)-3′-(3-(p-tolyl)ureido)-[1,1′-biphenyl]-2-carboxylic acid]
29 | 7.15 | 7.30 | O=C(Nc1ccc(C(F)(F)F)cc1F)Nc1cc(-c2ccccc2-c2nnn[nH]2)ccc1N1CCC(c2ccccc2)C1 (racemic) [Example 370, (±)-1-(2-Fluoro-4-(trifluoromethyl)phenyl)-3-(4-(3-phenylpyrrolidin-1-yl)-2′-(1H-tetrazol-5-yl)-[1,1′-biphenyl]-3-yl)urea]
30 | 7.22 | – | CCOc1ccc(NC(=O)Nc2cc(-c3cccc(C)c3C(=O)O)ccc2N(CC(C)C)CC(C)C)cc1 [Example 545]
31 | 7.40 | – | Cc1ccc(C(=O)O)c(-c2ccc(N(CC(C)C)CC(C)C)c(NC(=O)Nc3ccc(Cl)cc3F)c2)c1 [Example 527, 3′-(3-(4-Chloro-2-fluorophenyl)ureido)-4′-(diisobutylamino)-5-methyl-[1,1′-biphenyl]-2-carboxylic acid]
32 | 7.70 | – | CC(C)CN(c1cc(F)c(-c2cc(F)ccc2C(=O)O)cc1NC(=O)Nc1ccc2c(c1)OCO2)C1CCC(F)(F)CC1 [Example 531, 5′-(3-(Benzo[d][1,3]dioxol-5-yl)ureido)-4′-((4,4-difluorocyclohexyl)(isobutyl)amino)-2′,5-difluoro-[1,1′-biphenyl]-2-carboxylic acid]
33 | 8.00 | – | CC(C)CN(c1cc(F)c(-c2cc(F)ccc2C(=O)O)cc1NC(=O)Nc1ccccc1F)C1CCC(F)(F)CC1 [Example 538, 4′-((4,4-Difluorocyclohexyl)(isobutyl)amino)-2′,5-difluoro-5′-(3-(2-fluorophenyl)ureido)-[1,1′-biphenyl]-2-carboxylic acid]
34 | 8.63 | 9.00 | Cc1ccc(NC(=O)Nc2cc(-c3ccccc3-c3nnn[nH]3)cc(Cl)c2N(CC(C)C)CC(C)C)cc1 [Example 39, 1-(5-Chloro-4-(diisobutylamino)-2′-(1H-tetrazol-5-yl)biphenyl-3-yl)-3-p-tolylurea]
